Data on 11 compounds can be found in PubChem BioAssay (NCI).

Each structure is given as a SMILES string.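 Cells were grown in 96-well plates and exposed to each compound for 48 hours at five concentrations; endpoints were interpolated linearly between bracketing concentrations, or set to the highest concentration if not reached. The concentration for full growth arrest is given as TGI.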 Bounds are passed on as bounds.

Experiment in all cases: NCI tumour cell line growth inhibition, 48 h
Experiment [1] concerns SK-OV-3 ovarian.
Experiment [2] relates to 786-0 renal.
Experiment [3] relates to SNB-19 CNS.
The subject of experiment [4] is SW-620 colon.
In experiment [5] the test system is HCT-15 colon.
Experiment [6] deals with SK-MEL-2 melanoma.
For experiment [7], the system named is OVCAR-5 ovarian.
The subject of experiment [8] is HCT-116 colon.
Experiment [9] relates to CAKI-1 renal.
Experiment [10] concerns MDA-N.
Experiment [11] concerns OVCAR-3 ovarian.
Experiment [12] relates to NCI-H460 lung.
Experiment [13] relates to OVCAR-8 ovarian.
For experiment [14], the system named is HCC-2998 colon.

Regarding `Cc1c(N=Nc2ccc(Cl)cc2)c(-c2ccccc2)n(C2OC(CO)C(O)C(O)C2O)c(=S)c1C#N` (centres undefined), the TGI in experiment [1] turned out to be 30.6 µM; in experiment [2], 36.7 µM; in experiment [3] it was 25.2 µM; in experiment [4], 32.9 µM; in [5], 33.9 µM; in experiment [6] it was 37.5 µM. In addition, the TGI in experiment [7] was found to be 33.7 µM; in [8], 28.2 µM; in [9], 34 µM; in experiment [10], 35.9 µM; in experiment [11], 32.5 µM; in experiment [12], 51.7 µM.

Regarding `COC(=O)C(Cc1c[nH]c2ccccc12)NP(=O)(O)OCC1OC(n2cc(I)c(=O)[nH]c2=O)CC1O` (centres undefined), the TGI in experiment [1], in experiment [2], in [3], in experiment [4], in experiment [5] and in experiment [7] was over 100 µM throughout. Further, the TGI in [13], in experiment [8], in experiment [9], in experiment [10], in experiment [11] and in [12] was over 100 µM in each case.

On to `COc1ccc(/C=C2\N=C(SC)N(CN3CCOCC3)C2=O)cc1`, for which the TGI in experiment [1], in experiment [2], in experiment [3], in [4], in [5] and in experiment [6] was over 100 µM throughout. Also, the TGI in [7], in experiment [13], in experiment [8], in experiment [10] and in experiment [11] was over 100 µM each time.

Regarding `COc1ccc(C(OCC2OC(n3cc(C)c(=O)[nH]c3=O)CC2n2cc(Cn3cc(Cl)c(=O)[nH]c3=O)nn2)(c2ccccc2)c2ccccc2)cc1` (centres undefined), the TGI in [1], in experiment [2], in experiment [3], in [4], in experiment [5] and in [6] was over 100 µM each time. In addition, the TGI in [7], in [13], in experiment [8], in [9], in [10] and in [14] was over 100 µM each time. The same compound displayed a TGI in experiment [11] of over 100 µM.

For `N#C/C1=C(\N)CCSSSC1`, the TGI in experiment [1] was over 100 µM; in experiment [2], over 100 µM; in [3], over 100 µM; in experiment [4] it was over 100 µM; in experiment [5] it was 98.2 µM; in experiment [6] it was 90.5 µM. The TGI was over 100 µM in experiment [7]; 43.2 µM in [13]; over 100 µM in experiment [8]; over 100 µM in [9]; over 100 µM in experiment [14]; over 100 µM in experiment [11]. Besides, in experiment [12], the TGI was determined as 51.2 µM.

With `NNC(=O)c1n[nH]nc1C(=O)NN`, the TGI is 28.8 µM in [2]; over 100 µM in experiment [3]; over 100 µM in [5]; over 100 µM in experiment [6]; over 100 µM in [7]; over 100 µM in [13]. Also, the TGI was over 100 µM in [8]; 32.6 µM in experiment [9]; over 100 µM in experiment [10]; over 100 µM in [14]; over 100 µM in experiment [11]; over 100 µM in experiment [12].

Consider `Cc1nc2c(nc1C)-c1[nH]c3c(c1C(=O)C2=O)CCCC3=O`, for which the TGI came out at 6.87 µM in experiment [1]; 7.34 µM in [2]; 5.58 µM in [3]; 5.17 µM in experiment [4]; 8.08 µM in [5]; 3.29 µM in experiment [6]. Besides, the TGI was 4.7 µM in [7]; 2.88 µM in experiment [13]; 1.9 µM in experiment [10]; 7.71 µM in experiment [14]; 2.07 µM in experiment [11]; 16.2 µM in experiment [12].

Consider `Cc1ccccc1N1C(=O)C2C=CC(n3[nH]c(=O)n(Cc4ccccc4)c3=O)CC2C1=O` (centres undefined), for which the TGI in experiment [1], in experiment [2], in experiment [3], in [4], in [5] and in experiment [6] was over 100 µM throughout. In addition, the TGI in [7], in experiment [13], in experiment [8], in [9], in experiment [14] and in experiment [11] was over 100 µM each time. Further, the TGI in [12] was over 100 µM.

In the case of `CC(C)C(=O)OCC1OC(n2c(Br)nc3c(=O)[nH]c(N)nc32)C(OC(=O)C(C)C)C1OC(=O)C(C)C` (centres undefined), the TGI was over 100 µM in experiment [1]; 65.3 µM in [2]; over 100 µM in experiment [3]; over 100 µM in [4]; over 100 µM in [5]; over 100 µM in experiment [6]. The TGI is over 100 µM in experiment [7]; over 100 µM in experiment [13]; over 100 µM in experiment [8]; over 100 µM in experiment [10]; over 100 µM in [11]; 58 µM in experiment [12].

As to `N#Cc1c(N)n(-c2cccc(C(=O)O)c2)c(=O)c2cc([N+](=O)[O-])ccc12`, the TGI in experiment [2], in experiment [3], in [4], in experiment [5], in experiment [6] and in experiment [13] was over 100 µM throughout. Moreover, the TGI in experiment [8], in experiment [9], in experiment [10], in experiment [14] and in experiment [12] was over 100 µM in each case.

Consider `O=C(O)C(NCc1ccccc1)C(NCc1ccccc1)C(=O)O` (centres undefined), for which the TGI in [1], in experiment [2], in experiment [3], in [4], in experiment [5] and in experiment [6] was over 100 µM throughout. In addition, the TGI in experiment [13], in experiment [8], in [9], in experiment [10], in [14] and in experiment [11] was over 100 µM in each case. The compound further displayed a TGI in [12] of over 100 µM.
